One series addresses T1, Tyrosinase (Agaricus bisporus, UniProt O42713).
T1 sequence (O42713 whole entry): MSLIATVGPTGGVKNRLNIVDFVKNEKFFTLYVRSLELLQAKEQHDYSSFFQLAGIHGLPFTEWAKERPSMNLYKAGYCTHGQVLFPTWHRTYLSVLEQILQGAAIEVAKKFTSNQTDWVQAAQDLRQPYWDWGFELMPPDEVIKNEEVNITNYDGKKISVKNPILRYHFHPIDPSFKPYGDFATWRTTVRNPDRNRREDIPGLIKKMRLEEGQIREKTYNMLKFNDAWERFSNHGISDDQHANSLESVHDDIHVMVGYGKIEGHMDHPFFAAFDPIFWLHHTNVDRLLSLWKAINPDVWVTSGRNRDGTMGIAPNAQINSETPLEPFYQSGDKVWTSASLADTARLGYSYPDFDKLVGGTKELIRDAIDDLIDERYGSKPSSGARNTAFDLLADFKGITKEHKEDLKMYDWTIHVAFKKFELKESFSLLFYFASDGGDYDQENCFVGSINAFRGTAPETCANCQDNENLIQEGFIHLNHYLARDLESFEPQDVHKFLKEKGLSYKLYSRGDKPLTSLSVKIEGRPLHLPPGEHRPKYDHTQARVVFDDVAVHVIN
The series is described as follows: Inhibition of diphenolase activity of mushroom tyrosinase.

Substrate in series [1]: O=C(CCc1ccc(O)cc1)c1c(O)cc(O)cc1O[C@@H]1O[C@H](CO)[C@@H](O)[C@H](O)[C@H]1O
Description: Activity of mushroom tyrosinase diphenolase
Particulars: Agaricus bisporus.

As a reminder, the IC50 is the concentration at which inhibition is half-maximal. The Ki is a dissociation constant, usually derived from enzyme kinetics or from competition with a known ligand. The term Km denotes the substrate concentration at which the rate is half of its maximum.

Consider `O=C(CCc1ccc(O)cc1)c1c(O)cc(O)cc1O[C@@H]1O[C@H](CO)[C@@H](O)[C@H](O)[C@H]1O`, for which, on Tyrosinase, half-maximal inhibition (IC50) was put at 110 µM and the Ki is 64.3 µM.

B1: Tyrosinase (Agaricus bisporus), O42713 (protein)
chain: T1 sequence (O42713 whole entry)
In the case of B1, in series [1], the Km amounted to 627 µM.

The record behind these values is ChEMBL document CHEMBL1139063, “Inhibitory effects of phloridzin dihydrate on the activity of mushroom (Agaricus bisporus) tyrosinase” (Bioorg Med Chem, 2007).
